In this assay the target is T1, His6-LIMP-2_35-430 (Homo sapiens, UniProt Q14108).
T1 sequence (Q14108 35-430): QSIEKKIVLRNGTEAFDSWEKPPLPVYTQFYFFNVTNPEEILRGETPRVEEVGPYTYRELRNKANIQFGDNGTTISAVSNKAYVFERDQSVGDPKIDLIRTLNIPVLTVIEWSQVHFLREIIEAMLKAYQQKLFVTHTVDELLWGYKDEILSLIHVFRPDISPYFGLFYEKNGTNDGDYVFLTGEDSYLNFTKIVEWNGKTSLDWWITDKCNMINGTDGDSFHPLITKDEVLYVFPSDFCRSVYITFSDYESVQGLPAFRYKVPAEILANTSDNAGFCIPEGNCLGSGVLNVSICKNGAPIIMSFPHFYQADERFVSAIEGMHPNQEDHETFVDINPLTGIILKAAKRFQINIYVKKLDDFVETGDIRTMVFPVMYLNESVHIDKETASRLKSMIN
Nature of the assay: microscale thermophoresis. Format: binding. (In general: MST reads how a fluorescent partner responds to local heating, with and without ligand.)

The structures appear in SMILES notation.

Consider `CC(C)CCC[C@@H](C)[C@H]1CC[C@H]2[C@@H]3CC=C4C[C@@H](O)CC[C@]4(C)[C@H]3CC[C@]12C` [cholesterol], for which the Kd (commonly the free concentration of one partner at which half of the binding sites on the other are occupied at equilibrium, for simple one-to-one binding) was found to be 3.7 µM. Next, `COc1ccc2cc1Oc1ccc(cc1)C[C@H]1c3cc(c(OC)cc3CCN1C)Oc1c(OC)c(OC)cc3c1[C@H](C2)N(C)CC3` [Tetrandrine]: 241 µM.

Values taken from article PMC12238253 (Nature Communications, 2025).
